Like-named read-outs stand apart in the source and are kept apart here.
How the values were obtained:
[1] = Solubility (physico-chemical properties of the 11107 analogues); settings: in dimethylsulfoxide, pyridine, methanol, acetone and water
[2] = system: transcription from VEGF promoter; experiment: VEGF transcription-suppressing activity, VEGF-PLAP reporter in U251/1-8 cell; format: cell-based; settings: Homo sapiens, U-251, U251/1-8 cell, PLAP activity, low oxygen 18 hours
How it was run: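 U251 glioma clone stably carrying a ~2.3 kb human VEGF promoter–secreted PLAP reporter, 4×10^4 cells/well, exposed to 3-fold dilutions of compound for 18 h under low oxygen. Supernatant PLAP read by chemiluminescence at pH 10.0; IC50 = 50% suppression, normoxia 0%, hypoxia 100%.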

[3] = read-out: IC50 values of VEGF transcription-suppressing activity (range given)

Row | SMILES | Solubility [1] | IC50 [2, 3] | IC50 ([2]; read-out: VEGF transcription suppressing activity (IC50: nM))
1 | CCC(O)C(C)C1OC1CC(C)/C=C/C=C(\C)C1OC(=O)CC(O)CCC(C)(O)C(OC(C)=O)/C=C/C1C (stereo not shown) [11107AD] | soluble in dimethylsulfoxide, pyridine, methanol and acetone, and slightly soluble in water | – | –
2 | CCC(=O)C(C)C1OC1CC(C)(O)/C=C/C=C(\C)C1OC(=O)CC(O)CCC(C)(O)C(OC(C)=O)/C=C/C1C (stereo not shown) [11107AV] | soluble in dimethylsulfoxide, pyridine, methanol and acetone, and slightly soluble in water | – | –
3 | CCC(O)C(C)C1OC1CC(C)/C=C/C=C(\C)C1C/C=C/C(OC(C)=O)C(C)(O)CCC(O)CC(=O)O1 (stereo not shown) [11107Z] | soluble in dimethylsulfoxide, pyridine, methanol and acetone, and slightly soluble in water | 1 to 100 nM | –
4 | CCC(O)C(C)/C=C/C=C(\C)C1OC(=O)CC(O)CCC(C)C(OC(C)=O)/C=C/C1C (stereo not shown) [11107BJ] | soluble in dimethylsulfoxide, pyridine, methanol and acetone, and slightly soluble in water | – | –
5 | CCC(O)C(C)C1OC1CC(C)/C=C/C=C(\C)C1OC(=O)CC(O)CCC(C)(O)C(O)/C=C/C1C (stereo not shown) [11107A] | soluble in dimethylsulfoxide, pyridine, methanol and acetone, and slightly soluble in water | – | –
6 | CC(=O)OC1/C=C/C(C)C(/C(C)=C/C=C/C(C)CC2OC2C(C)O)OC(=O)CC(O)CCC1(C)O (stereo not shown) [11107R] | soluble in dimethylsulfoxide, pyridine, methanol and acetone, and slightly soluble in water | 1 to 100 nM | –
7 | CCC(O)C(C)C1OC1CC(C)/C=C/C=C(\C)C1OC(=O)CC(O)CCC(O)(COC(C)=O)C(OC(C)=O)/C=C/C1C (stereo not shown) [11107N] | soluble in dimethylsulfoxide, pyridine, methanol and acetone, and slightly soluble in water | 1 to 100 nM | –
8 | CCC(O)C(C)C1OC1CC(C)/C=C/C=C(\C)C1OC(=O)CC(O)CCC(C)(O)CCC(=O)C1C (stereo not shown) [11107V] | soluble in dimethylsulfoxide, pyridine, methanol and acetone, and slightly soluble in water | – | –
9 | CCC1OC1CC(C)(O)/C=C/C=C(\C)C1OC(=O)CC(O)CCC(C)(O)C(OC(C)=O)/C=C/C1C (stereo not shown) [11107BB] | soluble in dimethylsulfoxide, pyridine, methanol and acetone, and slightly soluble in water | – | –
10 | CCC(=O)C(C)(O)/C=C/CC(C)/C=C/C1OC(=O)CC(O)CCC(C)(O)C(OC(C)=O)/C=C/C1C (stereo not shown) [11107AH] | soluble in dimethylsulfoxide, pyridine, methanol and acetone, and slightly soluble in water | – | –
11 | CCC(O)C(C)C1OC1CC(C)/C=C/C=C(\C)C1OC(=O)CC(O)CCC(C)(OC(C)=O)C(OC(C)=O)/C=C/C1C (stereo not shown) [11107AQ] | soluble in dimethylsulfoxide, pyridine, methanol and acetone, and slightly soluble in water | 1 to 100 nM | –
12 | CCC(O)C(C)C1OC1CC(C)/C=C/C=C/C1OC(=O)CC(O)CCC(C)(O)C(O)/C=C/C1C (stereo not shown) [11107BD] | soluble in dimethylsulfoxide, pyridine, methanol and acetone, and slightly soluble in water | – | –
13 | CCC(=O)C(C)C1OC1CC(C)/C=C/C=C(\C)C1OC(=O)CC(O)CCC(C)(O)C(O)/C=C/C1C (stereo not shown) [11107AC] | soluble in dimethylsulfoxide, pyridine, methanol and acetone, and slightly soluble in water | – | –
14 | CCC(O)C(C)C1OC1CC(C)/C=C/C=C(\C)C1OC(=O)CC(O)CCC(O)(COC(C)=O)C(O)/C=C/C1C (stereo not shown) [11107AB] | soluble in dimethylsulfoxide, pyridine, methanol and acetone, and slightly soluble in water | 1 to 100 nM | –
15 | CCC(O)C(C)C1OC1CC(C)/C=C/C=C(\C)C1OC(=O)CC(O)CCCC(O)/C=C/C1C (stereo not shown) [11107AK] | soluble in dimethylsulfoxide, pyridine, methanol and acetone, and slightly soluble in water | – | –
16 | CCC(=O)/C(C)=C/C(O)CC(C)/C=C/C=C(\C)C1OC(=O)CC(O)CCC(C)(O)C(OC(C)=O)/C=C/C1C (stereo not shown) [11107AA] | soluble in dimethylsulfoxide, pyridine, methanol and acetone, and slightly soluble in water | – | –

Row | SMILES | Solubility [1] | IC50 [2, 3] | IC50 ([2]; read-out: VEGF transcription suppressing activity (IC50: nM))
17 | CCC(=O)OC1/C=C/C(C)C(/C(C)=C/C=C/C(C)CC2OC2C(C)C(O)CC)OC(=O)CC(O)CCC1(C)O (stereo not shown) [11107I] | soluble in dimethylsulfoxide, pyridine, methanol and acetone, and slightly soluble in water | 1 to 100 nM | –
18 | CCC(O)C(C)(O)/C=C/CC(C)/C=C/C1OC(=O)CC(O)CCC(C)(O)C(OC(C)=O)/C=C/C1C (stereo not shown) [11107BC] | soluble in dimethylsulfoxide, pyridine, methanol and acetone, and slightly soluble in water | – | –
19 | CC(=O)OC1/C=C/C(C)C(/C(C)=C/C=C/C(C)CC(O)C2OC(C)C(O)C2C)OC(=O)CC(O)CCC1(C)O (stereo not shown) [11107AS] | soluble in dimethylsulfoxide, pyridine, methanol and acetone, and slightly soluble in water | – | –
20 | CCC(O)C(C)C1OC1CC(C)/C=C/C=C(\C)C1OC(=O)CC(O)CC(=O)C(C)(O)C(OC(C)=O)/C=C/C1C (stereo not shown) [11107BH] | soluble in dimethylsulfoxide, pyridine, methanol and acetone, and slightly soluble in water | 1 to 100 nM | 2.6 nM
21 | CCC1OC(CC(C)/C=C/C=C(\C)C2OC(=O)CC(O)CCC(C)(O)C(OC(C)=O)/C=C/C2C)C(O)C1(C)O (stereo not shown) [11107AU] | soluble in dimethylsulfoxide, pyridine, methanol and acetone, and slightly soluble in water | – | –
22 | CCC(O)C(O)CC(C)/C=C/C=C(\C)C1OC(=O)CC(O)CCC(C)(O)C(OC(C)=O)/C=C/C1C (stereo not shown) [11107AF] | soluble in dimethylsulfoxide, pyridine, methanol and acetone, and slightly soluble in water | – | –
23 | CCC(O)C(C)C1OC1CC(C)/C=C/C=C(\C)C1OC(=O)CC(O)CCC2(CO2)C(O)/C=C/C1C (stereo not shown) [11107AO] | soluble in dimethylsulfoxide, pyridine, methanol and acetone, and slightly soluble in water | – | –
24 | CCC(O)C(C)C1OC1CC(C)/C=C/C=C(\C)C1OC(=O)C(C)C(O)CCC(C)(O)C(OC(C)=O)/C=C/C1C (stereo not shown) [11107X] | soluble in dimethylsulfoxide, pyridine, methanol and acetone, and slightly soluble in water | – | –
25 | CCC(O)C(C)C(O)C(O)CC(C)CC/C=C(\C)C1OC(=O)CC(O)CCC(C)(O)C(OC(C)=O)/C=C/C1C (stereo not shown) [11107AG] | soluble in dimethylsulfoxide, pyridine, methanol and acetone, and slightly soluble in water | – | –
26 | CCC(O)C(C)C1OC1C(O)C(C)/C=C/C=C(\C)C1OC(=O)CC(O)CCC(C)(O)C(OC(C)=O)/C=C/C1C (stereo not shown) [11107BF] | soluble in dimethylsulfoxide, pyridine, methanol and acetone, and slightly soluble in water | – | –
27 | CC(=O)OC1/C=C/C(C)C(/C=C/C(C)C/C=C/C(C)O)OC(=O)CC(O)CCC1(C)O (stereo not shown) [11107BE] | soluble in dimethylsulfoxide, pyridine, methanol and acetone, and slightly soluble in water | – | –
28 | CCC(O)C(C)C1OC1CC(C)/C=C/C=C(\C)C1OC(=O)C(C)C(O)CCC(C)(O)C(O)/C=C/C1C (stereo not shown) [11107AI] | soluble in dimethylsulfoxide, pyridine, methanol and acetone, and slightly soluble in water | – | –
29 | CC(=O)OC1/C=C/C(C)C(/C(C)=C/C=C/C(C)O)OC(=O)CC(O)CCC1C (stereo not shown) [11107AR] | soluble in dimethylsulfoxide, pyridine, methanol and acetone, and slightly soluble in water | – | –
30 | CCC(O)C(C)C1OC1CC(C)/C=C/C=C(\C)C1OC(=O)CC(O)/C=C/C(C)(O)C(O)/C=C/C1C (stereo not shown) [11107S] | soluble in dimethylsulfoxide, pyridine, methanol and acetone, and slightly soluble in water | – | –
31 | CCC(O)C(C)C(O)C(O)CC(C)/C=C/C=C(\C)C1OC(=O)CC(O)CCC(C)(O)C(OC(C)=O)/C=C/C1C (stereo not shown) [11107O] | soluble in dimethylsulfoxide, pyridine, methanol and acetone, and slightly soluble in water | – | –
32 | CCC(O)C(C)C(O)C(O)CC(C)/C=C/C=C(\C)C1OC(=O)CC(O)/C=C/C(C)(O)C(OC(C)=O)/C=C/C1C (stereo not shown) [11107BA] | soluble in dimethylsulfoxide, pyridine, methanol and acetone, and slightly soluble in water | – | –

— US7667052B2 (Eisai R&D Management Co., Ltd., priority 2003, dated 2010)
